One may read the ED50 as the dose at which the effect has come halfway, by size or by number of responders.

We go through 12 compounds from patent US4767764A, “Alkoxyalkyl and alkylmercaptoalkyl substituted bridged benzofuroisoquinolines having opioid antagonist and/or appetite-controlling properties” (E. I. Du Pont de Nemours and Company, priority 1986, dated 1988).

In assay [1] the target is T1, mu opioid receptor (morphine analgesia) (Mus musculus, UniProt P42866).
T1 construct: Male CF1 mice (fasted 17-21 hours); from tissue; host or cells: live male CF1 mice (in vivo, whole animal; endogenous receptor)
T1 sequence (P42866 whole entry): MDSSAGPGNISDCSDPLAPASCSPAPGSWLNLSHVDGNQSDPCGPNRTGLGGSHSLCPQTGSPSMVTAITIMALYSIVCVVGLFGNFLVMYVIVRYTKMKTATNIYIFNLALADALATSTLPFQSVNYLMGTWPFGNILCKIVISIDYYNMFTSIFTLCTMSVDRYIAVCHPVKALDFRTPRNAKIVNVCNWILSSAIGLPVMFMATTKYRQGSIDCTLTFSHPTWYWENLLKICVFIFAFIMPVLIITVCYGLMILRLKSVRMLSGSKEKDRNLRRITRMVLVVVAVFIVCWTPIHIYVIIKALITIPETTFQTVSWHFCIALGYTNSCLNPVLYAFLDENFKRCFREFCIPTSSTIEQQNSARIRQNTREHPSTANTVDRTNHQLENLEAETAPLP
The assay can be described thus: antagonism of morphine analgesia in PQW test (mu antagonist potency). The settings on record: sc, read-out: ED50, antagonism of morphine analgesia in PQW test (mu antagonist potency). The format is in vivo, mouse (male CF1).

The subject of assay [2] is PQ-induced writhing in mice. The assay can be described thus: animal or person. The format is in vivo, mouse (male CF1). The settings on record: Mus musculus, sc, read-out: ED50, antagonism of PQ-induced writhing in mice.
Assay [3] addresses T2, kappa opioid receptor (U-50,488H analgesia) (Mus musculus, UniProt P33534).
T2 construct: Male CF1 mice (fasted 17-21 hours); from tissue; host or cells: live male CF1 mice (in vivo, whole animal; endogenous receptor)
The assay can be described thus: in vivo. To be noted: sc, read-out: ED50, antagonism of U-50,488H analgesia in PQW test (kappa antagonist potency). The arrangement: species or system mouse (male CF1).

Assay [4] has as its system animal models of hemorrhagic, septic, and neurogenic shock. The settings on record: in vivo; cited from earlier work.
The test system of assay [5] is food intake. To be noted: in vivo; cited from earlier work.
Assay [6] deals with spinal cord injury. To be noted: rabbit, versus WIN 44,441-3; cited from earlier work.
The test system of assay [7] is feeding. To be noted: in vivo; cited from earlier work.
In assay [8] the test system is kappa receptor. To be noted: cited from earlier work.
Assay [9] has as its system μ (mu), κ (kappa) and δ (delta) opioid receptors. The settings on record: established opioid antagonists; cited from earlier work.

T2 sequence (P33534 whole entry): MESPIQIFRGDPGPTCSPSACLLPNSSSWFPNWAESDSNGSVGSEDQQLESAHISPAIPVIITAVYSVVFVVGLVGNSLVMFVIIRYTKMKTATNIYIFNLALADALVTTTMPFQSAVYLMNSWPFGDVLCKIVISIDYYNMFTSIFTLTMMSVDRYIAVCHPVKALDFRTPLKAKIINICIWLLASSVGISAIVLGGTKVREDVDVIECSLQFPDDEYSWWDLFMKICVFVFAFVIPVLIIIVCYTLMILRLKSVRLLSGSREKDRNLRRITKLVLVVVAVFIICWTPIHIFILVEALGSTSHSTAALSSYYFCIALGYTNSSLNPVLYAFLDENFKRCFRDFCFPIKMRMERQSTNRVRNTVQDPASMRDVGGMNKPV

For `CCCOCC1CC2CCC13CN(CCC)CCC31c3cccc(O)c3OC21` (stereo not drawn) [Example 3, 5-(n-Propoxymethyl)-3-n-propyl-1,2,3,4,5,6,7,7a-octahydro-4a,7-ethanobenzofuro[3,2-e]isoquinolin-9-ol], the ED50 in assay [1] was 0.06 mg/kg; in [2] it was above 81 mg/kg; in [3], 0.025 mg/kg.
For `Oc1cccc2c1OC1C3CCC4(CN(CC5CC5)CCC214)C(COCCCc1ccccc1)C3` (stereo not drawn) [Example 7, 3-cyclopropylmethyl-5-(3-phenyl-n-propoxymethyl)-1,2,3,4,5,6,7,7a-octahydro-4a,7-ethanolbenzofuro[3,2-e]isoquinolin-9-ol], the ED50 in [1] is 0.29 mg/kg; in assay [2], above 81 mg/kg; in assay [3], 0.24 mg/kg.
As to `CCCOCC1CC2C=CC13CN(CCC)CCC31c3cccc(O)c3OC21` (stereo not drawn) [Example 4, 5-(n-propoxymethyl)-3-n-propyl-1,2,3,4,5,6,7,7a-octahydro-4a,7-ethenobenzofuro[3,2-e]isoquinolin-9-ol], the ED50 in assay [1] is 0.19 mg/kg; in assay [2], above 81 mg/kg; in assay [3], 0.05 mg/kg.
As for `CCCN1CCC23c4cccc(O)c4OC2C2CCC3(C1)C(CSC)C2` (stereo not drawn) [Example 5, 5-methylthiomethyl-3-n-propyl-1,2,3,4,5,6,7,7a-octahydro-4a,7-ethanobenzofuro[3,2-e]isoquinolin-9-ol], the ED50 in assay [1] was 0.1 mg/kg; in [2] it was above 81 mg/kg; in assay [3], 0.063 mg/kg.
The matching figures for `CCC1C2Cc3ccc(O)cc3C1(CC)CCN2Cc1ccoc1` (stereo not drawn) [MR 2266, reference compound]: 0.109 mg/kg, above 81 mg/kg and 0.115 mg/kg.
As for `C=CCN1CC[C@]23c4c5ccc(O)c4O[C@H]2C(=O)CC[C@@]3(O)[C@H]1C5` [Naloxone, naloxone], in assay [4], the “effective doses in shock models versus mu mediated effects” value is “several orders of magnitude higher than doses useful in reversing mu mediated effects”; the “improvement of hemodynamic parameters in shock models” value was “improve hemodynamic parameters in a variety of animal models of hemorrhagic, septic, and neurogenic shock”. In assay [5], the “decrease of food intake” value was “decrease food intake in several animal species” and the “effective doses for food intake versus mu mediated effects” value is given as “much larger than those useful in reversing mu mediated effects”. Further, the ED50 in assay [2] is above 81 mg/kg. In addition, in assay [6], the “effectiveness in spinal stroke model” value was “less effective than WIN 44,441-3”.
On to `CCCN1CCC23c4cccc(O)c4OC2C2CCC3(C1)C(COC)C2` (stereo not drawn) [Example 1, 5-Methoxymethyl-3-n-propyl-1,2,3,4,5,6,7,7a-octahydro-4a,7-ethanobenzofuro[3,2-e]isoquinolin-9-ol], for which the values for the ED50 in [1], in assay [2] and in assay [3] were 0.014 mg/kg, above 81 mg/kg and 0.004 mg/kg, respectively.
For the compound `COCC1CC2CCC13CN(CC1CC1)CCC31c3cccc(O)c3OC21` (stereo not drawn) [Example 6, 3-Cyclopropylmethyl-5-methoxymethyl-1,2,3,4,5,6,7,7a-octahydro-4a,7-ethanobenzofuro[3,2-e]isoquinolin-9-ol], the ED50 is 0.008 mg/kg in assay [1], above 81 mg/kg in [2] and 0.007 mg/kg in assay [3].
In the case of `CCCN1CCC23c4cccc(O)c4OC2C2CCC3(C1)C(COCC)C2` (stereo not drawn) [Example 2, 5-Ethoxymethyl-3-n-propyl-1,2,3,4,5,6,7,7a-octahydro-4a,7-ethanobenzofuro[3,2-e]isoquinolin-9-ol], the ED50 in assay [1] was 0.024 mg/kg; in [2], above 81 mg/kg; in assay [3], 0.012 mg/kg.
`CC[C@]12CCN(CC3CC3)[C@H](C(=O)c3ccc(O)cc31)[C@@H]2C` [ethylketocyclazocine]: in assay [7], the stimulation of feeding entry is reported as “more potent stimulators of feeding than the mu agonist morphine”.
As for `CN1CC[C@]2(C)c3cc(O)ccc3C[C@H]1C2(C)CCC(=O)CCC1CCCC1.CS(=O)(=O)O` (stereo partly drawn) [WIN 44,441-3], the “kappa receptor activity/selectivity in words” value in assay [8] is “enhanced activity at the kappa receptor”.
As to `O=C1CC[C@@]2(O)[C@H]3Cc4ccc(O)c5c4[C@@]2(CCN3CC2CC2)[C@H]1O5` [Naltrexone, naltrexone], the “opioid receptor binding in words” value in assay [9] was “bind to all three types of receptors, with greatest affinity for the mu receptor”. Besides, in assay [5], the “decrease of food intake” value is reported as “decrease food intake in several animal species” and the “effective doses for food intake versus mu mediated effects” value was “much larger than those useful in reversing mu mediated effects”. The ED50 in [2] is above 81 mg/kg.
